The IC50 is the concentration that inhibits the measured activity by half. Lower therefore signals greater potency.

Consider 13 compounds from patent US11254705B2, “Cyclic peptide analogs and conjugates thereof” (Sirenas LLC, priority 2016, dated 2022).

This experiment concerns HCC1954 cells. Put plainly: Inhibition of HCC1954 cell growth (method analogous to BT-474). It counts as cell-based. The conditions noted are these: Homo sapiens. The method, then:
BT-474 human mammary gland ductal carcinoma cells were seeded in a clear polystyrene 96-well microculture plate (Corning® Costar® 96-well flat bottom plate, Cat. #3997) in a total volume of 90 μL/well. After 24 hours of incubation in a humidified incubator at 37° C. with 5% CO2 and 95% air, 10 μL of 10×, serially diluted test agents in growth medium were added to each well (10 pt dose response curve, highest concentration 10 μM of test agent). After 72 hours of culture in a humidified incubator at 37° C., in an atmosphere of 5% CO2 and 95% air, the plated cells and Cell Titer-Glo® (Protnega G7571) reagents were brought to room temperature to equilibrate for 30 minutes. 100 μL of Cell Titer-Glo® reagent was added to each well. The plate was shaken for two minutes and then left to equilibrate for ten minutes. The media/Cell Titer-Glo® reagent was transferred to a white polystyrene 96-well microculture plate (Corning® Costar® 96-well flat bottom plate, Cat. #3917) before reading luminescence on a Tecan GENios microplate reader.
Percent inhibition of cell growth was calculated relative to untreated control wells. The IC50 value for the test agents was determined using Prism 6.05 by curve-fitting of the data using the following four parameter-logistic equation:
[formula] where Top is the maximal % of control absorbance, Bottom is the minimal % of control absorbance at the highest agent concentration, Y is the % of control absorbance, X is the agent concentration, IC50 is the concentration of agent that inhibits cell growth by 50% compared to the control cells, and n is the slope of the curve.
Inhibitory response of test compounds against HCC1954 cells was determined using a method analogous to that used for BT-474 cells.
`C/C=C(\C)[C@H]1OC(=O)[C@@H](C)NC(=O)[C@H]([C@H](C)CC)NC(=O)CN(C)C(=O)[C@@H](Cc2ccc(Cl)cc2)N(C)C(=O)[C@H](C)NC(=O)[C@@H](CC(C)C)OC(=O)/C(C)=C/C[C@H](OC(=O)NCCCCCO)[C@@H]1C` [Compound 16, (2R,5S,8R,14S,17R,20S,21S,22S,E)-20-((E)-but-2-en-2-yl)-14-((R)-sec-butyl)-8-(4-chlorobenzyl)-2-isobutyl-5,7,10,17,21,25-hexamethyl-3,6,9,12,15,18,26-heptaoxo-1,19-dioxa-4,7,10,13,16-pentaazacyclohexacos-24-en-22-yl (5-hydroxypentyl)carbamate] had a half-maximal inhibitory concentration (IC50) of 0.1 nM.

`C/C=C(\C)[C@H]1OC(=O)C(C)(C)NC(=O)[C@H]([C@H](C)CC)NC(=O)CN(C)C(=O)[C@@H](Cc2ccc(Cl)cc2)N(C)C(=O)[C@H](C)NC(=O)[C@@H](CC(C)C)OC(=O)/C(C)=C/C[C@H](O)[C@@H]1C` [Compound 21, (6S,12R,15S,18R,24S,25S,26S,E)-26-((E)-but-2-en-2-yl)-6-((R)-sec-butyl)-12-(4-chlorobenzyl)-24-hydroxy-18-isobutyl-3,3,10,13,15,21,25-heptamethyl-1,19-dioxa-4,7,10,13,16-pentaazacyclohexacos-21-ene-2,5,8,11,14,17,20-heptaone] registered an IC50 of 0.56 nM.

Compound `C/C=C(\C)[C@H]1OC(=O)[C@@H](C)NC(=O)[C@H]([C@H](C)CC)NC(=O)CN(C)C(=O)[C@@H](Cc2ccc(Cl)cc2)N(C)C(=O)[C@H](C)NC(=O)[C@@H](CC(C)C)OC(=O)/C(C)=C/C[C@H](OC(=O)N(C)CCCCCCCCCCCCNC)[C@@H]1C` [Compound 20, (2R,5S,8R,14S,17R,20S,21S,22S,E)-20-((E)-but-2-en-2-yl)-14-((R)-sec-butyl)-8-(4-chlorobenzyl)-2-isobutyl-5,7,10,17,21,25-hexamethyl-3,6,9,12,15,18,26-heptaoxo-1,19-dioxa-4,7,10,13,16-pentaazacyclohexacos-24-en-22-yl methyl(12-(methylamino)dodecyl)carbamate] displayed an IC50 of 15.4 nM.

`C/C=C(\C)[C@H]1OC(=O)[C@@H](C)NC(=O)[C@H]([C@H](C)CC)NC(=O)CN(C)C(=O)[C@@H](Cc2ccc(Cl)cc2)N(C)C(=O)[C@H](C)NC(=O)[C@@H](CC(C)C)OC(=O)/C(C)=C/C[C@H](OC(=O)NCCOCCO)[C@@H]1C` [Compound 17, (2R,5S,8R,14S,17R,20S,21S,22S,E)-20-((E)-but-2-en-2-yl)-14-((R)-sec-butyl)-8-(4-chlorobenzyl)-2-isobutyl-5,7,10,17,21,25-hexamethyl-3,6,9,12,15,18,26-heptaoxo-1,19-dioxa-4,7,10,13,16-pentaazacyclohexacos-24-en-22-yl (2-(2-hydroxyethoxy)ethyl)carbamate] displayed an IC50 of 4.15 nM.

Consider `C/C=C(\C)[C@H]1OC(=O)C(C)(C)NC(=O)[C@H]([C@H](C)CC)NC(=O)CN(C)C(=O)[C@@H](Cc2ccc(Cl)cc2)N(C)C(=O)[C@H](C)NC(=O)[C@@H](CC(C)C)OC(=O)/C(C)=C/C[C@H](OC(=O)N2CCN(CCO)CC2)[C@@H]1C` [Compound 26, (2R,5S,8R,14S,20S,21S,22S,E)-20-((E)-but-2-en-2-yl)-14-((R)-sec-butyl)-8-(4-chlorobenzyl)-2-isobutyl-5,7,10,17,17,21,25-heptamethyl-3,6,9,12,15,18,26-heptaoxo-1,19-dioxa-4,7,10,13,16-pentaazacyclohexacos-24-en-22-yl 4-(2-hydroxyethyl)piperazine-1-carboxylate], for which half-maximal inhibition (IC50) required 1.36 nM.

The compound `C/C=C(\C)[C@H]1OC(=O)[C@@H](C)NC(=O)[C@H](C(C)CC)NC(=O)CN(C)C(=O)[C@@H](Cc2ccc(Cl)cc2)N(C)C(=O)[C@H](C)NC(=O)[C@@H](CC(C)C)OC(=O)/C(C)=C/C[C@H](OC(=O)N(C)CCCCCCNC)[C@@H]1C` (stereo partly drawn) [Compound 19, (2R,5S,8R,14S,17R,20S,21S,22S,E)-20-((E)-but-2-en-2-yl)-14-((R)-sec-butyl)-8-(4-chlorobenzyl)-2-isobutyl-5,7,10,17,21,25-hexamethyl-3,6,9,12,15,18,26-heptaoxo-1,19-dioxa-4,7,10,13,16-pentaazacyclohexacos-24-en-22-yl methyl (6-(methylamino)hexyl)carbamate] showed a 50% inhibitory concentration (IC50) of 4.16 nM.

Compound `C/C=C(\C)[C@H]1OC(=O)C(C)(C)NC(=O)[C@H]([C@H](C)CC)NC(=O)CN(C)C(=O)[C@@H](Cc2ccc(C#N)cc2)N(C)C(=O)[C@H](C)NC(=O)[C@@H](CC(C)C)OC(=O)/C(C)=C/C[C@H](OC(=O)NCCCCCO)[C@@H]1C` [Compound 29, (2R,5S,8R,14S,20S,21S,22S,E)-20-((E)-but-2-en-2-yl)-14-((R)-sec-butyl)-8-(4-cyanobenzyl)-2-isobutyl-5,7,10,17,17,21,25-heptamethyl-3,6,9,12,15,18,26-heptaoxo-1,19-dioxa-4,7,10,13,16-pentaazacyclohexacos-24-en-22-yl (5-hydroxypentyl)carbamate] displayed an IC50 of 27.3 nM.

`C/C=C(\C)[C@H]1OC(=O)[C@@H](C)NC(=O)[C@H]([C@H](C)CC)NC(=O)CN(C)C(=O)[C@@H](Cc2ccccc2)N(C)C(=O)[C@H](C)NC(=O)[C@@H](CC(C)C)OC(=O)/C(C)=C/C[C@H](OC(=O)NCCc2ccc(O)cc2)[C@@H]1C` [Compound 10, (2R,5S,8R,14S,17R,20S,21S,22S,E)-8-benzyl-20-((E)-but-2-en-2-yl)-14-((R)-sec-butyl)-2-isobutyl-5,7,10,17,21,25-hexamethyl-3,6,9,12,15,18,26-heptaoxo-1,19-dioxa-4,7,10,13,16-pentaazacyclohexacos-24-en-22-yl (4-hydroxyphenethyl)carbamate] registered an IC50 of 1.36 nM.

The compound `C/C=C(\C)[C@H]1OC(=O)C(C)(C)NC(=O)[C@H]([C@H](C)CC)NC(=O)CN(C)C(=O)[C@@H](Cc2ccc(Cl)cc2)N(C)C(=O)[C@H](C)NC(=O)[C@@H](CC(C)C)OC(=O)/C(C)=C/C[C@H](OC(=O)N(C)CCCCCCNC)[C@@H]1C` [Compound 23, (2R,5S,8R,14S,20S,21S,22S,E)-20-((E)-but-2-en-2-yl)-14-((R)-sec-butyl)-8-(4-chlorobenzyl)-2-isobutyl-5,7,10,17,17,21,25-heptamethyl-3,6,9,12,15,18,26-heptaoxo-1,19-dioxa-4,7,10,13,16-pentaazacyclohexacos-24-en-22-yl methyl(6-(methylamino)hexyl)carbamate] yielded an IC50 of 0.47 nM.

Take `C/C=C(\C)[C@H]1OC(=O)C(C)(C)NC(=O)[C@H]([C@H](C)CC)NC(=O)CN(C)C(=O)[C@@H](Cc2ccc(Cl)cc2)N(C)C(=O)[C@H](C)NC(=O)[C@@H](CC(C)C)OC(=O)/C(C)=C/C[C@H](OC(=O)N(C)CCCCCCN(C)C(C)=O)[C@@H]1C` [Compound 24, (2R,5S,8R,14S,20S,21S,22S,E)-20-((E)-but-2-en-2-yl)-14-((R)-sec-butyl)-8-(4-chlorobenzyl)-2-isobutyl-5,7,10,17,17,21,25-heptamethyl-3,6,9,12,15,18,26-heptaoxo-1,19-dioxa-4,7,10,13,16-pentaazacyclohexacos-24-en-22-yl methyl(6-(N-methylacetamido)hexyl)carbamate]: inhibition was half-maximal at 2.07 nM (IC50).

In the case of `C/C=C(\C)[C@H]1OC(=O)[C@@H](C)NC(=O)[C@H]([C@H](C)CC)NC(=O)CN(C)C(=O)[C@@H](Cc2ccc(Cl)cc2)N(C)C(=O)[C@H](C)NC(=O)[C@@H](CC(C)C)OC(=O)/C(C)=C/C[C@H](OC(=O)NCCc2ccc(O)cc2)[C@@H]1C` [Compound 18, (2R,5S,8R,14S,17R,20S,21S,22S,E)-20-((E)-but-2-en-2-yl)-14-((R)-sec-butyl)-8-(4-chlorobenzyl)-2-isobutyl-5,7,10,17,21,25-hexamethyl-3,6,9,12,15,18,26-heptaoxo-1,19-dioxa-4,7,10,13,16-pentaazacyclohexacos-24-en-22-yl (4-hydroxyphenethyl)carbamate], the IC50 came out at 2.37 nM.

In turn, `C/C=C(\C)[C@H]1OC(=O)C(C)(C)NC(=O)[C@H](C(C)CC)NC(=O)CN(C)C(=O)[C@@H](Cc2ccc(Cl)cc2)N(C)C(=O)[C@H](C)NC(=O)[C@@H](CC(C)C)OC(=O)/C(C)=C/C[C@H](OC(=O)NCCCCCO)[C@@H]1C` (stereo partly drawn) [Compound 22, (2R,5S,8R,14S,20S,21S,22S,E)-20-((E)-but-2-en-2-yl)-14-((R)-sec-butyl)-8-(4-chlorobenzyl)-2-isobutyl-5,7,10,17,17,21,25-heptamethyl-3,6,9,12,15,18,26-heptaoxo-1,19-dioxa-4,7,10,13,16-pentaazacyclohexacos-24-en-22-yl(5-hydroxypentyl)carbamate] showed a concentration for half-maximal inhibition (IC50) of 7.26 nM.

The compound `C/C=C(\C)[C@H]1OC(=O)[C@@H](C)NC(=O)[C@H]([C@H](C)CC)NC(=O)CN(C)C(=O)[C@@H](Cc2ccccc2)N(C)C(=O)[C@H](C)NC(=O)[C@@H](CC(C)C)OC(=O)/C(C)=C/C[C@H](OC(=O)NCCCCCCCCCCCCO)[C@@H]1C` [Compound 13, (2R,5S,8R,14S,17R,20S,21S,22S,E)-8-benzyl-20-((E)-but-2-en-2-yl)-14-((R)-sec-butyl)-2-isobutyl-5,7,10,17,21,25-hexamethyl-3,6,9,12,15,18,26-heptaoxo-1,19-dioxa-4,7,10,13,16-pentaazacyclohexacos-24-en-22-yl (12-hydroxydodecyl)carbamate] displayed an IC50 of 18.1 nM.
